Here are results for 17 compounds from patent US5612476A, “Anti-endotoxin compounds” (priority 1995, dated 1997).

In assay [1] the test system is LPS-induced TNF production. Set-up: species or system C57BL/6 mice. The settings on record: mouse, iv.
The next assay deals with mouse macrophages. Kind of assay: cells. The note with it: for inhibition of LPS-induced TNF production: mouse macrophages, LPS 10 ng/ml, in words. Type of assay: cell-based, C57BL/6 mouse.
The subject of another assay is human monocytes. Description: In vitro inhibition of LPS-induced TNF production in human monocytes (ELISA). The settings on record: Monocyte, E. coli 0111:B4 LPS 10 ng/ml, 3 h, read-out: ED50 for inhibition of LPS-induced production of TNF. Type of assay: cell-based. How it is done:
Both bacterial LPS and bacterial lipid A elicit production of tumor necrosis factor (TNF) and IL-1β in cultured human monocytes (J. Immunol. 139:429, 1987).
Monocytes were isolated from human blood by Percoll density gradient centrifugation, plated at approximately 1×10^6 cells/well on a 48-well plate in RPMI 1640 medium (GIBCO, Grand Island, N.Y.) containing 10% human serum (Sigma Chemical Co., St. Louis, Mo.) and incubated for two to three hours. Bacterial LPS (i.e., from E. coli 0111:B4; Sigma Chemicals, St. Louis, Mo.) at 10 ng/ml or lipid A (Daiichi Chemicals, Tokyo, Japan) at 1.0 ng/ml in RPMI 1640 medium were combined with 0.45 ml of RPMI 1640 medium containing 1% human serum and added to the cultured monocytes. In experiments involving a lipid A analog, the analog was added immediately before addition of LPS or lipid A in varying concentrations (e.g., between 0 and 100 μM in a 50 μl aliquot). Following a three-hour incubation period, a 0.1 ml aliquot of the culture supernatant was assayed for the presence of TNF and IL-1β. TNF and IL-1β were assayed using the ELISA assay of R & D Systems (Minneapolis, Minn.) and the instructions of the manufacturer, however, any other standard ELISA kits may be utilized, for example, the kit available from Genzyme, Cambridge, Mass. Experiments were performed in triplicate.
Background: An ELISA detects its analyte on a solid surface through an enzyme-linked reagent.

The next assay deals with guinea pig macrophages. Description: cells. The assay is classed as cell-based, Hartley-White guinea pig. The note with it: for inhibition of LPS-induced TNF production: guinea pig macrophages, LPS 10 ng/ml, in words.
Assay [2] concerns LPS-induced TNF production. Kind of assay: In vivo inhibition of LPS-induced TNF production in guinea pigs. The note with it: optimum ED50's.
The next assay relates to HIV LTR. Description: Suppression of LPS-stimulated HIV LTR activation in stably transfected U938 cell line (HIV-1 LTR-CAT). The settings on record: Human immunodeficiency virus 1, 24 h, read-out: IC50 for suppression of LPS-stimulated HIV LTR activation.

Where “and” joins values, the source holds several entries; their conditions need not be identical. Identical values can stand only once.

Protocol for HIV LTR: Experiments were carried out using one such stably-transfected cell line, i.e., the U938 cell line of Latham et al. (Cell. Immunol. 129:513, 1990). Cells were cultured as described in Latham et al. (1990, supra), and 10^6 cells were treated with a lipid A analog (at a concentration of between 0.0 and 1.0 μM). Thirty minutes after addition of the analog, cells were treated with phorbol myristate acetate (at a concentration of 0.33 ng/ml; described above) and E. coli 0111:B4 LPS (at a concentration of 33 ng/ml; described above). Cells were cultured for an additional 24 hours, harvested, and assayed for CAT activity as described above.

Consider `CCCCCC/C=C\CCCC(=O)O[C@H](CCCCCCC)CC(=O)O[C@@H]1[C@@H](NC(=O)/C=C/CCCCCCCCCCC)[C@H](OC[C@H]2O[C@H](OP(=O)(O)O)[C@H](NC(=O)/C=C/CCCCCCCCCCC)[C@@H](OC(=O)C[C@H](O)CCCCCCC)[C@@H]2O)O[C@H](CO)[C@H]1OP(=O)(O)O` [Analog B286-32], for which, in assay [1], the “inhibition of TNF production in vivo” value was “inhibited TNF production”. The same measure, in the same setting: as for `CCCCCC/C=C\CCCCO[C@H](CCCCCCC)CC(=O)O[C@@H]1[C@@H](NC(=O)CC(=O)CCCCCCCCCCC)[C@H](OC[C@H]2O[C@H](OP(=O)(O)O)[C@H](NC(=O)CC(=O)CCCCCCCCCCC)[C@@H](OC(=O)C[C@H](O)CCCCCCC)[C@@H]2O)O[C@H](CO)[C@H]1OP(=O)(O)O` [Analog B294-32], the entry is “inhibited TNF production”; as for `CCCCCC/C=C\CCCC(=O)O[C@H](CCCCCCC)CC(=O)O[C@@H]1[C@@H](NC(=O)CC(=O)CCCCCCCCCCC)[C@H](OC[C@H]2O[C@H](OP(=O)(O)O)[C@H](NC(=O)CC(=O)CCCCCCCCCCC)[C@@H](OC(=O)C[C@H](O)CCCCCCC)[C@@H]2O)O[C@H](CO)[C@H]1OP(=O)(O)O` [Analog B214-31], “inhibited TNF production”. Regarding `CCCCCC/C=C\CCCC(=O)O[C@H](CCCCCCC)CCO[C@@H]1[C@@H](NC(=O)CC(=O)CCCCCCCCCCC)[C@H](OC[C@H]2O[C@H](OP(=O)(O)O)[C@H](NC(=O)CC(=O)CCCCCCCCCCC)[C@@H](OCC[C@H](O)CCCCCCC)[C@@H]2O)O[C@H](COC)[C@H]1OP(=O)(O)O` [Analog B531-35], the IC50 was 2.26 nM with mouse macrophages (Mus musculus, Macrophage, 3 h, read-out: ED50 for inhibition of LPS-induced TNF production); around 0.02 nM in the assay on human monocytes; 0.66 nM in the assay with guinea pig macrophages (Cavia porcellus, Macrophage, 3 h, read-out: ED50 for inhibition of LPS-induced TNF production). Further, in assay [1], the “ED50 for inhibition of TNF production in vivo” value turned out to be 16.2 μg/mouse. On to `CCCCCC/C=C\CCCC(=O)O[C@H](CCCCCCC)CC(=O)O[C@@H]1[C@@H](NC(=O)CC(=O)CCCCCCCCCCC)[C@H](OC[C@H]2O[C@H](OP(=O)(O)O)[C@H](NC(=O)CC(=O)CCCCCCCCCCC)[C@@H](OC(=O)C[C@H](O)CCCCCCC)[C@@H]2O)O[C@H](CO)[C@H]1OP(=O)(O)O` [Analog B214-32], for which the “optimum ED50 for inhibition of LPS-induced TNF production in vivo” value in assay [2] was 7.5 μg/guinea pig and 5 μg/guinea pig. Moreover, the “inhibition of LPS-induced TNF production” value with mouse macrophages and in the assay on guinea pig macrophages was “inhibited LPS-induced TNF production” in each case. In addition, the “inhibition of TNF production in vivo” value in assay [1] is recorded as “inhibited TNF production”. For the compound `CCCCCC/C=C\CCCC(=O)O[C@H](CCCCCCC)CC(=O)O[C@@H]1[C@@H](NC(=O)CC(=O)CCCCCCCCCCC)[C@H](OC[C@H]2O[C@H](OP(=O)(O)O)[C@H](NC(=O)CC(=O)CCCCCCCCCCC)[C@@H](OC(=O)C[C@H](O)CCCCCCC)[C@@H]2O)O[C@H](CO)[C@H]1OP(=O)(O)O` [Analog B214-33], the “inhibition of TNF production in vivo” value in assay [1] is “inhibited TNF production”. Regarding `CCCCCC/C=C\CCCC(=O)O[C@H](CCCCCCC)CCO[C@@H]1[C@@H](NC(=O)CC(=O)CCCCCCCCCCC)[C@H](OC[C@H]2O[C@H](OP(=O)(O)O)[C@H](NC(=O)CC(=O)CCCCCCCCCCC)[C@@H](OCC[C@H](O)CCCCCCC)[C@@H]2OC(C)=O)O[C@H](COC)[C@H]1OP(=O)(O)O` [Analog B718-35], the “inhibition of LPS-induced TNF production” value in the assay on mouse macrophages and in the assay with guinea pig macrophages was “inhibited LPS-induced TNF production” in each case.

`CCCCCC/C=C\CCCC(=O)O[C@H](CCCCCCC)CCO[C@@H]1[C@@H](NC(=O)CC(=O)CCCCCCCCCCC)[C@H](OC[C@H]2O[C@H](OP(=O)(O)O)[C@H](NC(=O)CC(=O)CCCCCCCCCCC)[C@@H](OCC[C@H](O)CCCCCCC)[C@@H]2O)O[C@H](CO)[C@H]1OP(=O)(O)O` [Analog B427-32]: the “inhibition of LPS-induced TNF production” value with mouse macrophages and in the assay with guinea pig macrophages was “inhibited LPS-induced TNF production” each time. Besides, the IC50 in the assay with HIV LTR lay within 15 to 260 nM. Consider `CCCCCC/C=C\CCCC(=O)O[C@H](CCCCCCC)CC(=O)O[C@@H]1[C@@H](NC(=O)CC(=O)CCCCCCCCCCC)[C@H](OC[C@H]2O[C@H](OP(=O)(O)O)[C@H](NC(=O)CC(=O)CCCCCCCCCCC)[C@@H](OCC[C@H](O)CCCCCCC)[C@@H]2O)O[C@H](CO)[C@H]1OP(=O)(O)O` [Analog B410-32], for which the “inhibition of LPS-induced TNF production” value in the assay on mouse macrophages and with guinea pig macrophages was “inhibited LPS-induced TNF production” in each case. Moreover, the “inhibition of TNF production in vivo” value in assay [1] was “inhibited TNF production”.

In the case of `CCCCCCC/C=C/C(=O)O[C@@H]1[C@@H](NC(=O)CC(=O)CCCCCCCCCCC)[C@H](OC[C@H]2O[C@H](OP(=O)(O)O)[C@H](NC(=O)CC(=O)CCCCCCCCCCC)[C@@H](OC(=O)C[C@H](O)CCCCCCC)[C@@H]2O)O[C@H](CO)[C@H]1OP(=O)(O)O` [Analog B400-32], the “inhibition of TNF production in vivo” value in assay [1] is recorded as “inhibited TNF production”. Moreover, the IC50 with HIV LTR was in the range of 15 to 260 nM. On to `CCCCCC/C=C\CCCC(=O)O[C@H](CCCCCCC)CCO[C@@H]1[C@@H](NC(=O)C[S+]([O-])CCCCCCCCCCC)[C@H](OC[C@H]2O[C@H](OP(=O)(O)O)[C@H](NC(=O)C[S+]([O-])CCCCCCCCCCC)[C@@H](OCC[C@H](O)CCCCCCC)[C@@H]2O)O[C@H](CO)[C@H]1OP(=O)(O)O` (stereo partly shown) [Analog B459-32], for which the “inhibition of LPS-induced TNF production” value in the assay on mouse macrophages and in the assay on guinea pig macrophages was “inhibited LPS-induced TNF production” in each case. On to `CCCCCC/C=C\CCCC(=O)O[C@H](CCCCCCCC)CCO[C@@H]1[C@@H](NC(=O)CC(=O)CCCCCCCCCCC)[C@H](OC[C@H]2O[C@H](OP(=O)(O)O)[C@H](NC(=O)CC(=O)CCCCCCCCCCC)[C@@H](OCC[C@H](O)CCCCCCCC)[C@@H]2O)O[C@H](COC)[C@H]1OP(=O)(O)O` [Analog B464-32], for which the “inhibition of LPS-induced TNF production” value in the assay with mouse macrophages and with guinea pig macrophages was “inhibited LPS-induced TNF production” in each case. Regarding `CCCCCC/C=C\CCNC(=O)O[C@H](CCCCCCC)CC(=O)O[C@@H]1[C@@H](NC(=O)CC(=O)CCCCCCCCCCC)[C@H](OC[C@H]2O[C@H](OP(=O)(O)O)[C@H](NC(=O)CC(=O)CCCCCCCCCCC)[C@@H](OC(=O)C[C@H](O)CCCCCCC)[C@@H]2O)O[C@H](CO)[C@H]1OP(=O)(O)O` [Analog B379-32], in assay [1], the “inhibition of TNF production in vivo” value is given as “inhibited TNF production”. On the same count and under the same terms, with `CCCCCC/C=C\CCCC(=O)O[C@H](CCCCCCC)CC(=O)O[C@@H]1[C@@H](NC(=O)CC(=O)CCCCCCCCCCC)[C@H](OC[C@H]2O[C@H](OP(=O)(O)O)[C@H](NC(=O)C[C@H](O)CCCCCCCCCCC)[C@@H](OC(=O)C[C@H](O)CCCCCCC)[C@@H]2O)O[C@H](CO)[C@H]1OP(=O)(O)O` [Analog B218-32] the entry was “inhibited TNF production”; with `CCCCCC/C=C\CCCC(=O)O[C@H](CCCCCCC)CC(=O)O[C@@H]1[C@@H](NC(=O)CC(=O)CCCCCCCCCCC)[C@H](OC[C@H]2O[C@H](OP(=O)(O)O)[C@H](NC(=O)/C=C/CCCCCCCCCCC)[C@@H](OC(=O)C[C@H](O)CCCCCCC)[C@@H]2O)O[C@H](CO)[C@H]1OP(=O)(O)O` [Analog B313-32], “inhibited TNF production”. On to `CCCCCC/C=C\CCCC(=O)O[C@H](CCCCCCC)CC(=O)O[C@@H]1[C@@H](NC(=O)CS(=O)(=O)CCCCCCCCCCC)[C@H](OC[C@H]2O[C@H](OP(=O)(O)O)[C@H](NC(=O)CS(=O)(=O)CCCCCCCCCCC)[C@@H](OC(=O)C[C@H](O)CCCCCCC)[C@@H]2O)O[C@H](CO)[C@H]1OP(=O)(O)O` [Analog B425-32], for which, in assay [1], the “inhibition of TNF production in vivo” value is reported as “inhibited TNF production”. Still for that read-out and setting: as for `CCCCCC/C=C\CCCC(=O)O[C@H](CCCCCCC)CC(=O)O[C@@H]1[C@@H](NC(=O)CC(=O)CCCCCCCCCCC)[C@@H](OC[C@H]2O[C@H](OP(=O)(O)O)[C@H](NC(=O)CC(=O)CCCCCCCCCCC)[C@@H](OC(=O)C[C@H](O)CCCCCCC)[C@@H]2O)O[C@H](CO)[C@H]1OP(=O)(O)O` [Analog B426-32], the entry is “inhibited TNF production”.
